Laboratory results reported in PubChem BioAssay (NCI).
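A five-concentration, 48-hour dose response in 96-well plates underlies each endpoint, interpolated linearly between surrounding concentrations. Definition used: TGI = concentration required for complete inhibition of growth.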

Experiments:
Assay in all cases: growth of human tumour cells (NCI), 48 h
KM12 colon = system: KM12 colon
NCI-H460 lung = system: NCI-H460 lung
MDA-MB-435 = system: MDA-MB-435
CCRF-CEM leukemia = system: CCRF-CEM leukemia
LOX IMVI melanoma = system: LOX IMVI melanoma
HCT-15 colon = system: HCT-15 colon
A498 renal = system: A498 renal
RPMI-8226 leukemia = system: RPMI-8226 leukemia
EKVX NSCLC = system: EKVX NSCLC
SF-295 CNS = system: SF-295 CNS
COLO 205 colon = system: COLO 205 colon
T-47D breast = system: T-47D breast
UO-31 renal = system: UO-31 renal
SK-OV-3 ovarian = system: SK-OV-3 ovarian
HT29 colon = system: HT29 colon
M14 melanoma = system: M14 melanoma
MCF7 breast = system: MCF7 breast
MDA-N = system: MDA-N

Compound	TGI (KM12 colon) [µM]	TGI (NCI-H460 lung) [µM]	TGI (MDA-MB-435) [µM]	TGI (CCRF-CEM leukemia) [µM]	TGI (LOX IMVI melanoma) [µM]	TGI (HCT-15 colon) [µM]	TGI (A498 renal) [µM]	TGI (RPMI-8226 leukemia) [µM]	TGI (EKVX NSCLC) [µM]	TGI (SF-295 CNS) [µM]	TGI (COLO 205 colon) [µM]	TGI (T-47D breast) [µM]	TGI (UO-31 renal) [µM]	TGI (SK-OV-3 ovarian) [µM]	TGI (HT29 colon) [µM]	TGI (M14 melanoma) [µM]	TGI (MCF7 breast) [µM]	TGI (MDA-N) [µM]
COc1cc(N(CCC#N)CCC#N)ccc1/C(N=Nc1cccc(C)c1)=N\NC(=O)c1ccc(C)cc1	> 100	> 100	> 100	> 100	> 100	> 100	44.1	> 100	> 100	> 100	> 100	> 100	> 100	> 100	> 100	> 100	> 100	> 100
CC(=O)Nc1ccc2c3c(cc(O)c2c1)N(C(=O)CCCCCC(=O)Nc1ccc2c4c(cc(O)c2c1)N(C(=O)OC(C)(C)C)CC4CCl)CC3CCl (stereo not drawn)	13.6	> 21.2	3.29	0.648	18.2	> 100	5.31	> 34.6	> 100	> 45.9	9.88	7.82	> 100	> 47.6	> 39.8	20.5	> 35.5	3.56
Cc1c(C=C(C#N)C#N)c(=O)n(C)c(=O)n1C	> 100	> 100	> 100	94.8	> 100	> 100	> 100	> 100	> 100	> 100	> 100	> 100	> 100	> 100	> 100	> 100	> 100	> 100
Cc1ccc2c(c1)C/C(=C\c1ccccc1C(=O)O)C2=O	> 100	> 100	> 100	> 100	> 100	> 100	> 100	> 100	> 100	> 100	> 100	> 100	> 100	–	> 100	–	> 100	> 100
COc1ccc(-c2cc(-c3ccccc3)nc(N)n2)c(O)c1	> 100	> 100	> 100	> 100	> 100	> 100	> 100	5.76	> 100	> 100	> 100	> 100	> 23.3	> 100	> 100	> 100	> 100	> 100
Nc1c(O)c(C(=O)O)cc2ccccc12	> 100	> 100	33.4	> 100	22.5	> 100	> 100	95.7	> 100	> 100	64.1	> 100	> 100	> 100	31.8	35.2	24.2	32.3
COC(=O)C(=O)C(C(=O)C(=O)Nc1nc(=S)[nH][nH]1)c1nc2ccc([N+](=O)[O-])cc2[nH]c1=O (stereo not drawn)	> 100	> 100	> 100	> 100	> 100	> 100	> 100	> 100	> 100	> 100	–	> 100	> 100	> 100	> 100	> 100	> 100	> 100
CC(C)(C)OC(=O)CC(NC(=O)OC(C)(C)C)C(=O)Oc1ccc([N+](=O)[O-])cc1 (stereo not drawn)	> 100	> 100	> 100	> 100	> 100	> 100	> 100	> 100	> 100	> 100	> 100	> 100	> 100	> 100	> 100	> 100	> 100	> 100
CC1(C)N=C(N)N=C(N)N1CCCCc1ccccc1	> 100	> 100	> 100	> 100	> 100	> 100	> 100	> 93.9	> 100	> 62.6	> 51.6	> 78.1	> 100	97.5	> 100	> 100	> 100	> 100
Fc1ccc(C(OCCN2CCC3CCC(C2)N3C/C=C/c2cccnc2)c2ccc(F)cc2)cc1 (stereo not drawn)	26.3	30.6	24.3	17.5	27	21.6	28	5.8	25	22.2	2.68	31	6.09	29.3	14.6	7.09	25.5	23.8
NC(N)=N/N=C/c1c(-c2ccc(Cl)cc2)nc2n1CCS2	24.2	26.9	25.6	16.9	18	28.8	26.4	26.9	30.4	11.3	14.3	34.8	25.5	27	21.1	11.1	27.9	23.3
CCOC(=O)c1c(CN2CCOCC2)n(Cc2ccccc2)c2c1cc(O)c1nc(C)c(C)nc12	> 100	> 100	> 100	> 100	> 100	> 100	55.3	> 100	> 100	> 100	> 100	> 100	> 100	> 100	> 100	> 100	34.5	> 100
O=C(N1CCN(c2ccccc2)CC1)N(C(=O)C1(c2ccc(Cl)cc2)CCCC1)S(=O)(=O)c1ccccc1	> 100	> 100	> 100	> 100	37.9	80.1	0.429	> 100	58.2	70.6	60.3	> 100	92.9	82.9	75.8	47.3	74.9	51.2
COc1ccc(/C=C2\CC3C4CC=C5C[C@@H](O)CC[C@]5(C)C4CC[C@]3(C)C2=O)cc1OC (stereo partly drawn)	> 100	> 100	> 100	> 100	> 100	> 100	93.6	36.2	> 100	50.4	47	> 100	90.3	> 100	> 100	> 100	> 100	> 100
COc1cc2c3c4c1OCc1c5c(cc(c1-4)CC3[N+](C)(C)CC2)OCO5 (stereo not drawn)	> 100	> 100	> 100	> 100	> 100	> 100	> 100	> 100	> 100	> 43	> 100	> 100	> 100	> 100	> 100	> 100	> 100	> 100
Cc1cc(C)nc(NS(=O)(=O)c2ccc(NC(=O)c3ccc4nc5ccccc5c(Nc5ccc(S(=O)(=O)Nc6nc(C)cc(C)n6)cc5)c4c3)cc2)n1	> 100	> 100	> 100	> 100	43.4	> 100	> 100	> 100	> 100	> 100	> 100	> 100	> 100	> 100	> 100	> 100	84.5	> 100
S=c1sscc1N1CCSc2ssc(=S)c21	> 100	> 100	> 100	> 100	> 100	> 100	77.4	> 100	49.8	–	> 100	> 100	> 100	–	> 100	> 100	> 100	> 100
C/C(CC(O)(C(F)(F)F)C(F)(F)F)=N/Nc1ccc([N+](=O)[O-])cc1[N+](=O)[O-]	> 10	> 10	> 10	> 10	> 10	> 10	8.37	5.91	> 10	> 10	3.85	8.37	> 10	6.3	> 10	> 10	> 10	> 10
COc1cc(C2S/C(=C/c3ccccc3)C(=O)N2c2ccccn2)cc(OC)c1OC (stereo not drawn)	29.4	–	29.3	> 100	26.9	36.4	33.4	73.3	76.1	> 83.3	> 78.8	36.3	28.8	> 90.6	> 47	31.8	> 57.9	34.4
N#Cc1c(Nc2ccccc2)[n+]([O-])c2ccc(Cl)cc2[n+]1[O-]	> 100	–	> 100	> 27.2	12.7	6.53	> 61.3	> 24.7	> 32.9	> 74.3	8.03	> 100	> 29.4	> 100	8.22	34.1	> 35.2	> 100
